Measured values as given in patent publication US8637484B2, “Modulation of growth hormone receptor expression and insulin-like growth factor expression” (Antisense Therapeutic Limited, priority 2003, dated 2014).
In the oligonucleotide strings, read from the 5' end, every base follows the letter of its sugar. An asterisk marks phosphorothioate; unmarked linkages are phosphodiester. Other units and linkages are bracketed, terminal groups are in braces. A string of capitals states the bases alone. e = 2'-O-(2-methoxyethyl) (MOE); [5mC] = 5-methylcytosine; d = 2'-deoxy (DNA)

What was measured:
growth hormone receptor = assay: [125I] hGH specific binding assay on liver microsomal membranes of treated mice; type: in vivo, mouse
Protocol: Specific binding assays were carried out with liver tissue using iodinated human growth hormone [^125I] hGH.
Microsomal membrane preparations were obtained as follows. 400 mg of tissue powder was homogenized in cold homogenizing buffer (50 mM Tris/HCl, 250 mM sucrose, pH 7.4). This was centrifuged at 2000 rpm for 10 min at 3° C. and the supernatant was saved. This was centrifuged again at 15,000 rpm for 20 min. Pellets were resuspended in 0.5 ml of RRA buffer with inhibitor (50 mM Tris, 20 mM MgC12, pH 7.4). Microsomal preparation samples were stored at −80° C. until the specific binding assay.
The [^125I] hGH specific binding assay was done as follows. Four glass tubes were set up for each sample, two for (−), two for (+). Different sample and solutions were added in each tube as follows (i) 0.2 ml RRA buffer (50 mM Tris, 20 mM MgCl2, 0.1% BSA, pH 7.4); (ii) 0.1 ml membrane (1/2 or 1/4 dilution); (iii) 0.1 ml bGH (10 μg/ml) for the (+) tube or 0.1 ml RRA buffer for the (−) tube; and (iv) 0.1 ml [^125I]-hGH tracer.
Samples were incubated at 4° C. with shaking overnight. The reaction was stopped with 2.5 ml of cold RRA, and the sample centrifuged at 2800 rpm for 25 min at 4° C. Supernatant was aspirated and pellets counted using the γ-counter. The specific binding capacity was calculated as: CPM(−)-CPM(+) Protein content of the microsomal samples was determined by the BCA protein assay.

[1] = tested on: growth hormone receptor mRNA; assay: Growth hormone receptor mRNA levels in liver, additional 1 week study; type: in vivo, mouse; settings: one-week study
Protocol: Male Balb/C(a) mice were prepared and grouped for analysis as in Example 18 above.
Animals were treated and serum IGF-I levels were measured as in Example 18 above. Briefly, for the one-week study, mice were given a subcutaneous dose of saline every second day, and mismatch control or antisense with administration on days 0, 2, 4, 6. On day 7, the animals were anaesthetized with pentobarbital and non-fasting blood samples collected exactly 5 minutes later from the retrobulbar plexus through heparinized capillary tubes under light ether anesthesia. Serum IGF-I measurement was done by radioimmunoassay at day 7.
Growth hormone receptor mRNA levels in liver tissue samples from treated and untreated mice in this one-week study were assayed. The growth hormone receptor antisense inhibitor ISIS 227446 reduced growth hormone receptor mRNA levels in liver after the one-week study by 72% at the 50 mg/kg dose, relative to saline control (p<0.0001). The 30 mg/kg dose of ISIS 227446 yielded a 50% decrease in growth hormone receptor mRNA (p<0.0001). The unrelated control oligonucleotide ISIS 260120, at 50 mg/kg, reduced growth hormone receptor mRNA levels by approximately 15% (p>0.05).

[2] = tested on: mouse growth hormone receptor mRNA; assay: Inhibition of mouse growth hormone receptor mRNA levels in b.END cells, quantitative real-time PCR; type: cell-based; settings: dose-response studies
Protocol: The mouse brain endothelial cell line b.END was obtained from Dr. Werner Risau at the Max Plank Instititute (Bad Nauheim, Germany). b.END cells were routinely cultured in DMEM, high glucose (Gibco/Life Technologies, Gaithersburg, Md.) supplemented with 10% fetal calf serum (Gibco/Life Technologies, Gaithersburg, Md.). Cells were routinely passaged by trypsinization and dilution when they reached 90% confluence. Cells were seeded into 96-well plates (Falcon-Primaria #3872) at a density of 3000 cells/well for use in RT-PCR analysis.
When cells reached 65-75% confluency, they were treated with oligonucleotide. For cells grown in 96-well plates, wells were washed once with 100 μL OPTI-MEM™-1 reduced-serum medium (Invitrogen Corporation, Carlsbad, Calif.) and then treated with 130 μL of OPTI-MEM™-1 containing 3.75 μg/mL LIPOFECTIN™ (Invitrogen Corporation, Carlsbad, Calif.) and the desired concentration of oligonucleotide. Cells are treated and data are obtained in triplicate. After 4-7 hours of treatment at 37° C., the medium was replaced with fresh medium. Cells were harvested 16-24 hours after oligonucleotide treatment.
Total RNA was isolated using an RNEASY 96™ kit and buffers purchased from Qiagen Inc. (Valencia, Calif.) following the manufacturer's recommended procedures. Briefly, for cells grown on 96-well plates, growth medium was removed from the cells and each well was washed with 200 μL cold PBS. 150 μL Buffer RLT was added to each well and the plate vigorously agitated for 20 seconds. 150 μL of 70% ethanol was then added to each well and the contents mixed by pipetting three times up and down. The samples were then transferred to the RNEASY 96™ well plate attached to a QIAVAC™ manifold fitted with a waste collection tray and attached to a vacuum source. Vacuum was applied for 1 minute. 500 μL of Buffer RW1 was added to each well of the RNEASY 96™ plate and incubated for 15 minutes and the vacuum was again applied for 1 minute. An additional 500 μL of Buffer RW1 was added to each well of the RNEASY 96™ plate and the vacuum was applied for 2 minutes. 1 mL of Buffer RPE was then added to each well of the RNEASY 96™ plate and the vacuum applied for a period of 90 seconds. The Buffer RPE wash was then repeated and the vacuum was applied for an additional 3 minutes. The plate was then removed from the QIAVAC™ manifold and blotted dry on paper towels. The plate was then re-attached to the QIAVAC™ manifold fitted with a collection tube rack containing 1.2 mL collection tubes. RNA was then eluted by pipetting 140 μL of RNAse free water into each well, incubating 1 minute, and then applying the vacuum for 3 minutes.
Quantitation of growth hormone receptor mRNA levels was accomplished by real-time quantitative PCR using the ABI PRISM™ 7600, 7700, or 7900 Sequence Detection System (PE-Applied Biosystems, Foster City, Calif.) according to manufacturer's instructions. This is a closed-tube, non-gel-based, fluorescence detection system which allows high-throughput quantitation of polymerase chain reaction (PCR) products in real-time. As opposed to standard PCR in which amplification products are quantitated after the PCR is completed, products in real-time quantitative PCR are quantitated as they accumulate. This is accomplished by including in the PCR reaction an oligonucleotide probe that anneals specifically between the forward and reverse PCR primers, and contains two fluorescent dyes. A reporter dye (e.g., FAM or JOE, obtained from either PE-Applied Biosystems, Foster City, Calif., Operon Technologies Inc., Alameda, Calif. or Integrated DNA Technologies Inc., Coralville, Iowa) is attached to the 5′ end of the probe and a quencher dye (e.g., TAMRA, obtained from either PE-Applied Biosystems, Foster City, Calif., Operon Technologies Inc., Alameda, Calif. or Integrated DNA Technologies Inc., Coralville, Iowa) is attached to the 3′ end of the probe. […]

[3] = 30 mg/kg every second day for one week, liver membranes

acaaagatccatacctgaga (eA*e[5mC]*eA*eA*eA*dG*dA*dT*d[5mC]*d[5mC]*dA*dT*dA*d[5mC]*d[5mC]*eT*eG*eA*eG*eA; antisense) [ISIS 227446]
reduction of specific binding compared to saline, ¼ dilution (growth hormone receptor; 30 mg/kg): 39% | reduction of specific binding compared to saline, ½ dilution (growth hormone receptor; 30 mg/kg): 26% | Specific binding/mg protein (cpm) ¼ dilution (growth hormone receptor; [3]): 5546 ± 789 cpm | Specific binding/mg protein (cpm) ½ dilution (growth hormone receptor; [3]): 4205 ± 534 cpm | growth hormone receptor levels (growth hormone binding activity), % of control (saline) group (growth hormone receptor; 30 mg/kg sc every second day for one week): 61% | growth hormone receptor levels, % of the control (mismatch) group (growth hormone receptor; 30 mg/kg, ½ dilution experiment): 59% | decrease in growth hormone receptor mRNA in liver ([1]; 30 mg/kg): 50% | reduction of growth hormone receptor mRNA levels in liver relative to saline control ([1]; 50 mg/kg): 72% | IC50 [2]: ~25 nM
